Assay results taken from patent US20230023009A1, “HETEROCYCLIC COMPOUNDS AND METHODS OF USE THEREOF” (SPARCBIO LLC, priority 2020, published 2023).

Target: KRAS G12C protein (Homo sapiens, UniProt P01116, G12C)
Assay: Nucleotide exchange assay (Method III, KRAS G12C/Raf-RBD TR-FRET)
Assay type: biochemical
Details: SOS1-mediated exchange of GDP for GTP, 18 hr compound incubation
Procedure: Method III. Inhibition of SOS1-mediated exchange of GDP for GTP on the KRAS G12C protein was measured in a biochemical assay that monitors association of KRAS G12C protein with the Ras-binding domain of Raf (Raf-RBD), where the association is coupled to exchange of GDP to GTP on the KRAS G12C protein. The assay was performed at WuXi AppTec (Shanghai, China). Compounds were serially diluted in 3-fold dilutions to 11 concentrations and spotted into the wells of an assay plate in a total volume of 150 nL DMSO per well. A 2× enzyme mix was prepared by diluting GDP-bound, His-tagged KRAS G12C to 25 nM in assay buffer. 10 μL/well of 2× enzyme mix was added to all wells, and the plate was sealed and incubated overnight (18 hr) at 23° C. 4×SOS1/GDP and 4×SOS1/GTP were prepared in assay buffer. 5 μL/well of 4×SOS1/GDP mix was added to negative control wells, 5 μL/well of 4×SOS1/GTP mix was added to the remaining wells, and the plate was further incubated at 23° C. for 1 hr. Finally, FLAG-tagged Raf-RBD is added to the reaction mixture along with a pair of FRET donor- and acceptor-conjugated antibodies specific for the FLAG-tagged Raf-RBD and His-tagged KRAS G12C proteins. A 4×Raf-RBD/Tb-anti-FLAG/D2-anti-His mix was prepared in assay buffer, and 5 μL/well of the mix was added to all wells, followed by incubation at room temperature for 2 hr. The TR-FRET signals, which increase with association of KRAS G12C and Raf-RBD, were measured on a Perkin Elmer Envision 2104 plate reader, and data were analyzed by non-linear regression to obtain IC50 values for inhibition by compounds. Table 2 includes results of the assay of Method III. ‘+++’ indicates IC50 values≤300 nM, ‘++’ indicates IC50 values between 300 nM-3 μM, and ‘+’ indicates IC50 values≥3 μM.

KRAS G12C protein, sequence (P01116 1-188 isoform P01116-2 G12C): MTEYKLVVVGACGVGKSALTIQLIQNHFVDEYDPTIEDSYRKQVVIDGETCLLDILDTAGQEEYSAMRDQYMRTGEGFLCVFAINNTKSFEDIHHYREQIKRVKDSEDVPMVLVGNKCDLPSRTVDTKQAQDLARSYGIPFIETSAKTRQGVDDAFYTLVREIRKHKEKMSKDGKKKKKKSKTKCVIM

C=C(F)C(=O)N1CCN(c2nc(Oc3cccc4c3CN(C)CC4)nc3c2COC(c2cccc4cccc(Cl)c24)C3)C[C@@H]1CC#N (single isomer, unassigned) [249 (Isomer B)] and C=C(F)C(=O)N1CCN(c2nc(Oc3cccc4c3CCN(C)C4)nc3c2COC(c2cccc4cccc(Cl)c24)C3)C[C@@H]1CC#N (single isomer, unassigned) [250 (Isomer A)] cannot be ordered by IC50: ≥ 3 µM for the first, 0.3 to 3 µM for the second.

C=C(F)C(=O)N1CCN(c2nc(OC[C@@H]3CCCN3C)nc3c2COC(c2cccc4cccc(Cl)c24)C3)[C@@H](C)C1 (single isomer, unassigned) [44 (Isomer A)] and C=C(F)C(=O)N1CCN(c2nc(OC[C@@H]3CCCN3C)nc3c2COC(c2cccc4cccc(Cl)c24)C3)C[C@H]1C (single isomer, unassigned) [42 (Isomer B)] cannot be ordered by IC50: ≥ 3 µM for the first, ≥ 3 µM for the second.

C=C(F)C(=O)N1CCN(c2nc(OC[C@@H]3CCCN3C)nc3c2OCC(c2cccc4cccc(Cl)c24)O3)C[C@@H]1CC#N (single isomer, unassigned) [64 (Isomer B)] and C=C(F)C(=O)N1CCN(c2nc(OC[C@@H]3CCCN3C)nc3c2OCC(c2cccc4cccc(Cl)c24)O3)[C@@H](C)C1 (single isomer, unassigned) [136 (Isomer A)] cannot be ordered by IC50: 0.3 to 3 µM for the first, ≥ 3 µM for the second.

C=C(F)C(=O)N1CCN(c2nc(NCCC(=O)N(C)C)nc3c2COC(c2cccc4cccc(Cl)c24)C3)C[C@@H]1CC#N (single isomer, unassigned) [232 (Isomer A)] and C=C(F)C(=O)N1CCN(c2nc(Nc3cnn(C)c3)nc3c2COC(c2cccc4cccc(Cl)c24)C3)C[C@@H]1CC#N (single isomer, unassigned) [233 (Isomer B)] cannot be ordered by IC50: 0.3 to 3 µM for the first, ≥ 3 µM for the second.

C=C(F)C(=O)N1C[C@H](C)N(c2nc(OC[C@@H]3CCCN3C)nc3c2COC(c2cccc4cccc(Cl)c24)C3)C[C@H]1C (single isomer, unassigned) [235 (Isomer A)] and C=C(F)C(=O)N1[C@H](C)CN(c2nc(OC[C@@H]3CCCN3C)nc3c2COC(c2cccc4cccc(Cl)c24)C3)C[C@@H]1C (single isomer, unassigned) [237 (Isomer B)] cannot be ordered by IC50: ≥ 3 µM for the first, ≥ 3 µM for the second.

C=C(F)C(=O)N1CCN(c2nc(OC[C@@H]3CCCN3C)nc3c2COC(c2cccc4cccc(Cl)c24)C3)[C@@H](C)C1 (single isomer, unassigned) [44 (Isomer B)] and C=C(F)C(=O)N1[C@H](C)CN(c2nc(OC[C@@H]3CCCN3C)nc3c2COC(c2cccc4cccc(Cl)c24)C3)C[C@@H]1C (single isomer, unassigned) [237 (Isomer A)] cannot be ordered by IC50: 0.3 to 3 µM for the first, ≥ 3 µM for the second.

C=C(F)C(=O)N1CCN(c2nc(OC[C@@H]3CCCN3C)nc3c2COC(c2cccc4sc(N)nc24)C3)C[C@@H]1CC#N (single isomer, unassigned) [260 (Isomer B)] and C=C(F)C(=O)N1CCN(c2nc(OC[C@@H]3CCCN3C)nc3c2COC(c2c(C)ccc4[nH]ncc24)C3)C[C@@H]1CC#N (single isomer, unassigned) [52 (Isomer A)] cannot be ordered by IC50: ≤ 0.3 µM for the first, 0.3 to 3 µM for the second.

C=C(F)C(=O)N1CCN(c2nc(Nc3cnn(C)c3)nc3c2COC(c2cccc4cccc(Cl)c24)C3)C[C@@H]1CC#N (single isomer, unassigned) [233 (Isomer A)] and C=C(F)C(=O)N1CCN(c2nc(NCCC(=O)N(C)C)nc3c2COC(c2cccc4cccc(Cl)c24)C3)C[C@@H]1CC#N (single isomer, unassigned) [232 (Isomer B)] cannot be ordered by IC50: ≥ 3 µM for the first, ≥ 3 µM for the second.

C=C(F)C(=O)N1CCN(c2nc(OC3CN(C)CC3C)nc3c2COC(c2cccc4cccc(Cl)c24)C3)C[C@@H]1CC#N (single isomer, unassigned) [272 (Isomer B)] and C=C(F)C(=O)N1CCN(c2nc(OC3CCN(C)CC3)nc3c2COC(c2cccc4cccc(Cl)c24)C3)C[C@@H]1CC#N (single isomer, unassigned) [234 (Isomer A)] cannot be ordered by IC50: ≥ 3 µM for the first, ≥ 3 µM for the second.

C=C(F)C(=O)N1CCN(c2nc(OC[C@@H]3CCCN3C)nc3c2COC(c2cccc4cccc(Cl)c24)C3)CC1(C)C (single isomer, unassigned) [238 (Isomer A)] and C=C(C)C(=O)N1CCN(c2nc(OC[C@@H]3CCCN3C)nc3c2COC(c2cccc4cccc(Cl)c24)C3)C[C@@H]1CC#N (single isomer, unassigned) [240 (Isomer B)] cannot be ordered by IC50: ≥ 3 µM for the first, ≥ 3 µM for the second.

C=C(F)C(=O)N1CCN(c2nc(OC[C@@H]3CCCN3C)nc3c2CC=C(c2cccc4cccc(Cl)c24)O3)CC1 [Compound 174, (S)-1-(4-(7-(8-chloronaphthalen-1-yl)-2-((1-methylpyrrolidin-2-yl)methoxy)-5H-pyrano[2,3-d]pyrimidin-4-yl)piperazin-1-yl)-2-fluoroprop-2-en-1-one] and C=C(F)C(=O)N1CCN(c2nc(OC[C@@H]3CCCN3C)nc3c2CC=C(c2cccc4cccc(Cl)c24)O3)C[C@H]1C [Compound 154, 1-((R)-4-(7-(8-chloronaphthalen-1-yl)-2-(((S)-1-methylpyrrolidin-2-yl)methoxy)-5H-pyrano[2,3-d]pyrimidin-4-yl)-2-methylpiperazin-1-yl)-2-fluoroprop-2-en-1-one] cannot be ordered by IC50: ≥ 3 µM for the first, ≥ 3 µM for the second.

C=C(F)C(=O)N1CCN(c2nc(N3CC(N(CC)CC)C3)nc3c2COC(c2cccc4cccc(Cl)c24)C3)C[C@@H]1CC#N (single isomer, unassigned) [229 (Isomer B)] and C=C(F)C(=O)N1CCN(c2nc(N3CCC(N(CC)CC)CC3)nc3c2COC(c2cccc4cccc(Cl)c24)C3)C[C@@H]1CC#N (single isomer, unassigned) [230 (Isomer B)] cannot be ordered by IC50: ≥ 3 µM for the first, 0.3 to 3 µM for the second.

C=C(F)C(=O)N1CCN(c2nc(OC3CN(C)CC3C)nc3c2COC(c2cccc4cccc(Cl)c24)C3)C[C@@H]1CC#N (single isomer, unassigned) [272 (Isomer C)] and C=C(F)C(=O)N1CCN(c2nc(OC3CCN(C)CC3)nc3c2COC(c2cccc4cccc(Cl)c24)C3)C[C@@H]1CC#N (single isomer, unassigned) [234 (Isomer B)] cannot be ordered by IC50: ≤ 0.3 µM for the first, 0.3 to 3 µM for the second.

C/C=C/C(=O)N1CCN(c2nc(OC[C@@H]3CCCN3C)nc3c2COC(c2cccc4cccc(Cl)c24)C3)C[C@@H]1CC#N (single isomer, unassigned) [241 (Isomer B)] and CN(C)C/C=C/C(=O)N1CCN(c2nc(OC[C@@H]3CCCN3C)nc3c2COC(c2cccc4cccc(Cl)c24)C3)C[C@@H]1CC#N (single isomer, unassigned) [242 (Isomer B)] cannot be ordered by IC50: 0.3 to 3 µM for the first, ≤ 0.3 µM for the second.

C=C(F)C(=O)N1CCN(c2nc(Oc3cccc4c3CN(C)CC4)nc3c2COC(c2cccc4cccc(Cl)c24)C3)C[C@@H]1CC#N (single isomer, unassigned) [249 (Isomer A)] and C=C(F)C(=O)N1CCN(c2nc(Oc3cccc4c3CCN(C)C4)nc3c2COC(c2cccc4cccc(Cl)c24)C3)C[C@@H]1CC#N (single isomer, unassigned) [250 (Isomer B)] fall in the same range of IC50: 0.3 to 3 µM for the first, 0.3 to 3 µM for the second.

C=C(F)C(=O)N1CCN(c2nc(OC[C@@H]3CCCN3C)nc3c2COC(c2cccc4cccc(Cl)c24)C3(C)C)C[C@@H]1CC#N (single isomer, unassigned) [258 (Isomer A)] and C=C(C)C(=O)N1CCN(c2nc(OC[C@@H]3CCCN3C)nc3c2COC(c2cccc4cccc(Cl)c24)C3)C[C@@H]1CC#N (single isomer, unassigned) [240 (Isomer A)] cannot be ordered by IC50: ≥ 3 µM for the first, ≥ 3 µM for the second.

C=C(F)C(=O)N1CCN(c2nc(NC3CCN(S(C)(=O)=O)CC3)nc3c2COC(c2cccc4cccc(Cl)c24)C3)C[C@@H]1CC#N (single isomer, unassigned) [231 (Isomer A)] and C=C(F)C(=O)N1CCN(c2nc(OC3CN(C)CC3C)nc3c2COC(c2cccc4cccc(Cl)c24)C3)C[C@@H]1CC#N (single isomer, unassigned) [272 (Isomer A)] cannot be ordered by IC50: ≥ 3 µM for the first, ≥ 3 µM for the second.

C=C(F)C(=O)N1CCN(c2nc(OC[C@@H]3CCCN3C)nc3c2OCC(c2cccc4cccc(Cl)c24)O3)C[C@@H]1CC#N (single isomer, unassigned) [64 (Isomer A)] and C=C(F)C(=O)N1CCN(c2nc(OC[C@@H]3CCCN3C)nc3c2OCC(c2cccc4cccc(Cl)c24)O3)[C@@H](C)C1 (single isomer, unassigned) [136 (Isomer B)] cannot be ordered by IC50: 0.3 to 3 µM for the first, ≥ 3 µM for the second.

CN(C)C/C=C/C(=O)N1CCN(c2nc(OC[C@@H]3CCCN3C)nc3c2COC(c2cccc4cccc(Cl)c24)C3)C[C@@H]1CC#N (single isomer, unassigned) [242 (Isomer A)] and C=C(Cl)C(=O)N1CCN(c2nc(OC[C@@H]3CCCN3C)nc3c2COC(c2cccc4cccc(Cl)c24)C3)C[C@@H]1CC#N (single isomer, unassigned) [239 (Isomer A)] cannot be ordered by IC50: ≥ 3 µM for the first, ≥ 3 µM for the second.

C=CC(=O)N1CCN(c2nc(OC[C@@H]3CCCN3C)nc3c2OCC(c2cccc4cccc(Cl)c24)O3)CC1 (single isomer, unassigned) [135 (Isomer A)] and C=C(F)C(=O)N1CCN(c2nc(OC[C@@H]3CCCN3C)nc3c2COC(c2cccc4cccc(Cl)c24)C3)CC1(C)C (single isomer, unassigned) [238 (Isomer B)] cannot be ordered by IC50: ≥ 3 µM for the first, ≥ 3 µM for the second.
